# According to ChEMBL document CHEMBL4265945, “Synthesis, biological evaluation and structure-activity relationship of a novel class of PI3Kα H1047R mutant inhibitors” (Eur J Med Chem, 2018):
# The source made the active and inactive calls. The calls are words filed in the database; no cut-off is given here.
# What was measured:
# [1] = target: Phosphatidylinositol 4,5-bisphosphate 3-kinase catalytic subunit alpha isoform (Homo sapiens, UniProt P42336, H1047R); assay: Inhibition of PI3Kalpha H1047R mutant (unknown origin) by HTRF assay
# [2] = tested on: MCF7; assay: cells; settings: Homo sapiens, MCF7, 72 h
# Description: Antiproliferative activity against human MCF7 cells after 72 hrs by CCK-8 assay
# [3] = tested on: HCT-116; settings: Homo sapiens, HCT-116, 72 h
# [4] = Inhibition of mTORC1 (unknown origin) after 40 mins by kinase-Glo reagent based luminescence assay; design: species or system Homo sapiens
# [5] = target: Phosphatidylinositol 4,5-bisphosphate 3-kinase catalytic subunit alpha isoform (Homo sapiens, UniProt P42336); assay: Inhibition of wild type PI3Kalpha (unknown origin) after 40 mins by kinase-Glo reagent based luminescence assay
# [6] = tested on: HCT-116; assay: Induction of apoptosis in human HCT116 cells assessed as necrotic cells at 5 uM after 24 hrs by Annexin V-FITC/PI staining based flow cytometry (reference value: 0.39%); type: functional
# [7] = tested on: HCT-116; assay: Induction of apoptosis in human HCT116 cells assessed as early apoptotic cells at 5 uM after 24 hrs by Annexin V-FITC/PI staining based flow cytometry (reference value: 4.07%); type: functional
# [8] = tested on: HCT-116; assay: Induction of autophagy in human HCT116 cells assessed as autophagic vacuole formation at 5 uM after 6 hrs by MDC staining based fluorescence microscopic analysis; type: functional, cell-based
# [9] = tested on: HCT-116; assay: Induction of apoptosis in human HCT116 cells assessed as late apoptotic cells at 5 uM after 24 hrs by Annexin V-FITC/PI staining based flow cytometry (reference value: 2.35%); type: functional
# [10] = tested on: HCT-116; assay: Induction of apoptosis in human HCT116 cells assessed as viable cells at 5 uM after 24 hrs by Annexin V-FITC/PI staining based flow cytometry (reference value: 93%); type: functional; settings: HCT-116, 24 h, read-out: Activity
# [11] = tested on: HCT-116; assay: Induction of autophagy in human HCT116 cells assessed as accumulation of GFP/mRFP-tagged LC3 accumulation in cytoplasm after 12 hrs by laser scanning confocal microscopic analysis; type: functional, cell-based
# [12] = target: Phosphatidylinositol 4,5-bisphosphate 3-kinase catalytic subunit beta isoform (Homo sapiens, UniProt P42338); assay: Inhibition of PI3Kbeta (unknown origin) after 40 mins by kinase-Glo reagent based luminescence assay
# [13] = target: Phosphatidylinositol 4,5-bisphosphate 3-kinase catalytic subunit gamma isoform (Homo sapiens, UniProt P48736); assay: Inhibition of PI3Kgamma (unknown origin) after 40 mins by kinase-Glo reagent based luminescence assay
# [14] = target: T1, Phosphatidylinositol 4,5-bisphosphate 3-kinase catalytic subunit delta isoform (Homo sapiens, UniProt O00329); assay: Inhibition of PI3Kdelta (unknown origin) after 40 mins by kinase-Glo reagent based luminescence assay
# T1 sequence (O00329 whole entry): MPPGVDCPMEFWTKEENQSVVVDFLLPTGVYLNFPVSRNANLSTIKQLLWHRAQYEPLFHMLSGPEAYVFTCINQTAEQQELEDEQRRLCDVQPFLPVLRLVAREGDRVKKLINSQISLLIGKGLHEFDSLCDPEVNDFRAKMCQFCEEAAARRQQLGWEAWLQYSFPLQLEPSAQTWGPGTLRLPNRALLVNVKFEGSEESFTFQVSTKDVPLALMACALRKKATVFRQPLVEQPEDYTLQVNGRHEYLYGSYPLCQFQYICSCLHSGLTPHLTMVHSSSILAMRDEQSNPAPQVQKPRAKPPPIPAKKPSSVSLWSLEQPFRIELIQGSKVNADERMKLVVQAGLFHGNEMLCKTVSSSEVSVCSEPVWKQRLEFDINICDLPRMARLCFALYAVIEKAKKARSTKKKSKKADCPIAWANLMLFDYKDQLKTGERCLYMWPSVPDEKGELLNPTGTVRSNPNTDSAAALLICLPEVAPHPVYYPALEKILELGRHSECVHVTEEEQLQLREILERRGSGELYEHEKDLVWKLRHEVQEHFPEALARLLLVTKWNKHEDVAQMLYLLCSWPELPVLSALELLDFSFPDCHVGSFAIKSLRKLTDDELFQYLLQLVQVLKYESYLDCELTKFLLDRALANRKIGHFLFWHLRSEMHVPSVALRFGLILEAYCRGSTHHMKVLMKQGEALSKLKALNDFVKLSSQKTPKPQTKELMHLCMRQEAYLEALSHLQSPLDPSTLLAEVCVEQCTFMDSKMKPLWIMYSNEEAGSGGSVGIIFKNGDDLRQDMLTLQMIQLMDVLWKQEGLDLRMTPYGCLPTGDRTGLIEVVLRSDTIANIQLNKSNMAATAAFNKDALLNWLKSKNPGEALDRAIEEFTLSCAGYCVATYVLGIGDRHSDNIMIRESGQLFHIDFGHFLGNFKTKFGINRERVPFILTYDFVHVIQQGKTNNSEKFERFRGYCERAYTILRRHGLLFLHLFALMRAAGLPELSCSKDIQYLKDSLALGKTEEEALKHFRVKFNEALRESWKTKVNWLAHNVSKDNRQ
# Phosphatidylinositol 4,5-bisphosphate 3-kinase catalytic subunit alpha isoform (Homo sapiens, UniProt P42336, H1047R), sequence (P42336 whole entry H1047R, canonical isoform): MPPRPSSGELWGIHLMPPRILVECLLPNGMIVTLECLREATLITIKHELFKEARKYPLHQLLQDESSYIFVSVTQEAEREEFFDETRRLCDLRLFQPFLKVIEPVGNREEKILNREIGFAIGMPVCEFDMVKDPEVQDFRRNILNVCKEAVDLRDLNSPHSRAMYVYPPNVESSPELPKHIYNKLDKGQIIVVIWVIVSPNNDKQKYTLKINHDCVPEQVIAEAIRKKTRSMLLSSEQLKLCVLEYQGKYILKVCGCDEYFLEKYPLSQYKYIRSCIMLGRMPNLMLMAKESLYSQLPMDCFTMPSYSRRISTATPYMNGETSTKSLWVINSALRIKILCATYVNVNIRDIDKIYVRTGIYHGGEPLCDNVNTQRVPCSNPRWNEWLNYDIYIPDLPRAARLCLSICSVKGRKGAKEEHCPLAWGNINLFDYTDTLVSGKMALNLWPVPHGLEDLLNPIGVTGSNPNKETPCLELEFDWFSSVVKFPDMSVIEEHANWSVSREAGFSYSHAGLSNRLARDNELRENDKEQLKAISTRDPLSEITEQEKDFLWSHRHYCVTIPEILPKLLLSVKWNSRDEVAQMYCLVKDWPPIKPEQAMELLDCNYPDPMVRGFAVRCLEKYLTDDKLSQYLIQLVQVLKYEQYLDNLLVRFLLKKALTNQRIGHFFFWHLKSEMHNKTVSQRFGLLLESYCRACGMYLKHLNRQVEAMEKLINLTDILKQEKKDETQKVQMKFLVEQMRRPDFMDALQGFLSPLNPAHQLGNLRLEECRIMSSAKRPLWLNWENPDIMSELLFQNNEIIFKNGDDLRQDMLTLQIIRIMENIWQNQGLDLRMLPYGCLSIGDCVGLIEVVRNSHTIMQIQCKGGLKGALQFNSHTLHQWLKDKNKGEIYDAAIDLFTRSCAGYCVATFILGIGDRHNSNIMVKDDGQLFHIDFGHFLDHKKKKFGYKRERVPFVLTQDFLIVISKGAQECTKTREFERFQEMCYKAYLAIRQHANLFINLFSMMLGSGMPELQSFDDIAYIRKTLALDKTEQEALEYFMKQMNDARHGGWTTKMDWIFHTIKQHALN
# Phosphatidylinositol 4,5-bisphosphate 3-kinase catalytic subunit alpha isoform (Homo sapiens, UniProt P42336), sequence (P42336 whole entry, canonical isoform): as the sequence (P42336 whole entry H1047R, canonical isoform) above, with R1047H counted along it
# Phosphatidylinositol 4,5-bisphosphate 3-kinase catalytic subunit gamma isoform, sequence (P48736 whole entry, canonical isoform): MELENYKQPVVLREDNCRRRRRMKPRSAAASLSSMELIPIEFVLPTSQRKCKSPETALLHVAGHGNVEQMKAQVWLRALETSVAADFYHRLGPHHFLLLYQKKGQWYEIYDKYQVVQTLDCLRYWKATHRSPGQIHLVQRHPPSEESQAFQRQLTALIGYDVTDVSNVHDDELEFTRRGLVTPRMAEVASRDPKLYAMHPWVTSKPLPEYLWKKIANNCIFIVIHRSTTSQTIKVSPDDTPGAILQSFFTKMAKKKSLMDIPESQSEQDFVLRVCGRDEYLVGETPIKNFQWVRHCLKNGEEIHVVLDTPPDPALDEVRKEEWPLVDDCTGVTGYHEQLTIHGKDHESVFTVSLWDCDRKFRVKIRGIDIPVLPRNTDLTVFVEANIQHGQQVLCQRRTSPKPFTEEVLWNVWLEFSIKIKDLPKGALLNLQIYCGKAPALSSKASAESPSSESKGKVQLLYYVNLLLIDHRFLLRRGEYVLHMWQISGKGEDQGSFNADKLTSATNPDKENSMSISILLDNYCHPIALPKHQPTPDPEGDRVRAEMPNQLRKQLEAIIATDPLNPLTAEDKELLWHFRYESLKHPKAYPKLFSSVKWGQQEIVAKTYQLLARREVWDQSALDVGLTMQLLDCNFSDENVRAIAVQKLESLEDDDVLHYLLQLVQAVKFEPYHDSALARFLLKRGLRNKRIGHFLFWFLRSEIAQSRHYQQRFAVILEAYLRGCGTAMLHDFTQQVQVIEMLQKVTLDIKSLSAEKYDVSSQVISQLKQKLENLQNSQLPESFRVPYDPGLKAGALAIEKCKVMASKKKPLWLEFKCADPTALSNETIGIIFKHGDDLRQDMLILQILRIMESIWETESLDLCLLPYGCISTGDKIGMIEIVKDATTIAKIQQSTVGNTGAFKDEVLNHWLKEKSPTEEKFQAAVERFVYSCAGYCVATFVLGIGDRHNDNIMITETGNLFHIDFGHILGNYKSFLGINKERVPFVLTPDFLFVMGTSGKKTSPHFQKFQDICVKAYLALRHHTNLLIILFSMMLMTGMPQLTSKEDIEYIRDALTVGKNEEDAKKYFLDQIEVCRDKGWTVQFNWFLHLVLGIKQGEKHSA
# Phosphatidylinositol 4,5-bisphosphate 3-kinase catalytic subunit beta isoform, sequence (P42338 whole entry, canonical isoform): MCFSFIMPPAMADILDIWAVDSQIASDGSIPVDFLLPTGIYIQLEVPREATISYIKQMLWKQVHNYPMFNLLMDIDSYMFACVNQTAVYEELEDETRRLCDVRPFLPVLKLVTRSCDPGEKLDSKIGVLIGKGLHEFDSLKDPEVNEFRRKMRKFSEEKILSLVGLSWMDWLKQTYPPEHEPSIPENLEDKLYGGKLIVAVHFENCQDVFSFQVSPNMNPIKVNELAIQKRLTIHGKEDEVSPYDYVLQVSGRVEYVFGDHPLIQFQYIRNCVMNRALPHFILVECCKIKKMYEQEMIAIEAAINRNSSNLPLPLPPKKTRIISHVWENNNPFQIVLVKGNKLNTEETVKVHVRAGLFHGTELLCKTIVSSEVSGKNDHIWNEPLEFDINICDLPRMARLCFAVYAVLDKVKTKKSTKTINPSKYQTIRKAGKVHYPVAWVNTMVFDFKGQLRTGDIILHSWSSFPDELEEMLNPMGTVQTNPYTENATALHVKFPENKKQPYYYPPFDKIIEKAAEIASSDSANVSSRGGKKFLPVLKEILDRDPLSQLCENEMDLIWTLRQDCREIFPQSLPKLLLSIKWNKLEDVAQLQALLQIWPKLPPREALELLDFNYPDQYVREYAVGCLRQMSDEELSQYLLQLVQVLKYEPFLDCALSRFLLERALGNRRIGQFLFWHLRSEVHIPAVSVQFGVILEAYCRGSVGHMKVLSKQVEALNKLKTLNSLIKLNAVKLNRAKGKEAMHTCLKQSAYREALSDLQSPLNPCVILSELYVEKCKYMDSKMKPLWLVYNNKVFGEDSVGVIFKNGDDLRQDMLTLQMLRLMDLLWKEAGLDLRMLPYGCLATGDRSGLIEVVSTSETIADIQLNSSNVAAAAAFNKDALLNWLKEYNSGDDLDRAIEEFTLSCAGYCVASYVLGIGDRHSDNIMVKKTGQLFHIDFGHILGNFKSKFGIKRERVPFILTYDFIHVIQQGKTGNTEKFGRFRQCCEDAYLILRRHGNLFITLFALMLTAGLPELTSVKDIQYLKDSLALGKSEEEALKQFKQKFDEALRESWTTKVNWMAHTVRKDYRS
SMILES,EC50 [1] [µM],IC50 [2] [µM],IC50 [3] [µM],other results
Cn1c(=O)n(-c2ccc(C(C)(C)C#N)cc2)c2c3cc(-c4cnc5ccccc5c4)ccc3ncc21 [DACTOLISIB],,,,EC50 [4]: 0.079 µM
O=C(Cc1ccc(F)cc1)c1ccc(O)c(O)c1O,170,> 50,> 50,
O=C(Cc1ccc(Cl)cc1)c1c(O)cc(O)cc1O,115,> 50,> 50,EC50 [5]: 79.3 µM
O=C(Cc1ccccc1F)c1ccc(O)c(O)c1O,> 500,> 50,> 50,
FC(F)c1nc2ccccc2n1-c1nc(N2CCOCC2)nc(N2CCOCC2)n1 [ZSTK-474],,5.27,1.31,Activity [6]: 0.2%; Activity [7]: 5.6%; Activity [8]: Active; Activity [9]: 1.29%; viability at 5 µM [10]: 92%; Activity [11]: Dose-dependent effect
Oc1ccc(-c2n[nH]cc2-c2ccc(Cl)c(Cl)c2)c(O)c1O,,,,EC50 [12]: 5.7 µM; EC50 [13]: 10 µM; EC50 [14]: 19.1 µM
O=C(Cc1ccc(Cl)c(Cl)c1)c1ccc(O)c(O)c1O,8.9,48.9,35.5,
O=C(Cc1ccc(Cl)cc1)c1cccc(O)c1O,> 500,> 50,> 50,
COc1ccc(CC(=O)c2ccc(O)c(O)c2O)cc1OC,242,> 50,> 50,

# Second part, led by results:
EC50 [1] [µM],IC50 [2] [µM],IC50 [3] [µM],SMILES,other results
> 500,> 50,> 50,O=C(Cc1ccccc1Cl)c1ccc(O)c(O)c1O,
98.2,> 50,> 50,O=C(Cc1cccc(Cl)c1)c1ccc(O)c(O)c1O,
69.3,> 50,> 50,O=C(Cc1ccc(Cl)cc1)c1ccc(O)c(O)c1O,EC50 [5]: 35.2 µM
196,> 50,> 50,O=C(Cc1ccc(Cl)cc1)c1ccc(O)cc1O,
9.7,> 50,47.3,O=C(Cc1ccc(F)c(Cl)c1)c1ccc(O)c(O)c1O,
58.4,> 50,> 50,O=C(Cc1ccc(C(F)(F)F)cc1)c1ccc(O)c(O)c1O,
